Three compounds from publication PMC8988006, “Structural and biochemical characterization of the prenylated flavin mononucleotide-dependent indole-3-carboxylic acid decarboxylase” (The Journal of Biological Chemistry, 2022) can be followed below.

Data set [1] has as its target T1, AnInD (indole-3-carboxylic acid decarboxylase) (Glutamicibacter nicotianae, UniProt Z9P359VB74, D169L).
T1 construct: His6-tagged (C-terminal in pET30a or N-terminal in pET28a), E. coli BL21(DE3), Ni-NTA, ~50 kDa by SDS-PAGE, hexamer, reconstituted with prFMN and Mn2+
T1 sequence (Z9P359VB74 2-461 D169L): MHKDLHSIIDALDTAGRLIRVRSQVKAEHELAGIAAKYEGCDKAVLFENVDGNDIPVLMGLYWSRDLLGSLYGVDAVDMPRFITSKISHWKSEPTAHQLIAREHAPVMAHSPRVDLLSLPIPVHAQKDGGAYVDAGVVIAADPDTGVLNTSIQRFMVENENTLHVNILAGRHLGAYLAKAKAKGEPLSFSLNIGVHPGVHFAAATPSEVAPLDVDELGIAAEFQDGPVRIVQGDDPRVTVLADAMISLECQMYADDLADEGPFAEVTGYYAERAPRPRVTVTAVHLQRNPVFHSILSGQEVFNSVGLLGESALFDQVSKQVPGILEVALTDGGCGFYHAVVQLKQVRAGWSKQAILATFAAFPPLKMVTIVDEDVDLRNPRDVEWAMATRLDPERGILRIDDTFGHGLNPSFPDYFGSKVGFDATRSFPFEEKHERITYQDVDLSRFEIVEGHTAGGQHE
Description: end point HPLC decarboxylation assay. The class given is biochemical. The note with it: prFMN-reconstituted; 50 mM potassium phosphate pH 6.5, 10 mM I3C, 2 μM enzyme.

The target in data set [2] is T2, SrCAR (Seginiliparous rugosus carboxylic acid reductase) (Segniliparus rugosus, UniProt E5XP76).
T2 construct: gene car
T2 sequence (E5XP76 1-1188): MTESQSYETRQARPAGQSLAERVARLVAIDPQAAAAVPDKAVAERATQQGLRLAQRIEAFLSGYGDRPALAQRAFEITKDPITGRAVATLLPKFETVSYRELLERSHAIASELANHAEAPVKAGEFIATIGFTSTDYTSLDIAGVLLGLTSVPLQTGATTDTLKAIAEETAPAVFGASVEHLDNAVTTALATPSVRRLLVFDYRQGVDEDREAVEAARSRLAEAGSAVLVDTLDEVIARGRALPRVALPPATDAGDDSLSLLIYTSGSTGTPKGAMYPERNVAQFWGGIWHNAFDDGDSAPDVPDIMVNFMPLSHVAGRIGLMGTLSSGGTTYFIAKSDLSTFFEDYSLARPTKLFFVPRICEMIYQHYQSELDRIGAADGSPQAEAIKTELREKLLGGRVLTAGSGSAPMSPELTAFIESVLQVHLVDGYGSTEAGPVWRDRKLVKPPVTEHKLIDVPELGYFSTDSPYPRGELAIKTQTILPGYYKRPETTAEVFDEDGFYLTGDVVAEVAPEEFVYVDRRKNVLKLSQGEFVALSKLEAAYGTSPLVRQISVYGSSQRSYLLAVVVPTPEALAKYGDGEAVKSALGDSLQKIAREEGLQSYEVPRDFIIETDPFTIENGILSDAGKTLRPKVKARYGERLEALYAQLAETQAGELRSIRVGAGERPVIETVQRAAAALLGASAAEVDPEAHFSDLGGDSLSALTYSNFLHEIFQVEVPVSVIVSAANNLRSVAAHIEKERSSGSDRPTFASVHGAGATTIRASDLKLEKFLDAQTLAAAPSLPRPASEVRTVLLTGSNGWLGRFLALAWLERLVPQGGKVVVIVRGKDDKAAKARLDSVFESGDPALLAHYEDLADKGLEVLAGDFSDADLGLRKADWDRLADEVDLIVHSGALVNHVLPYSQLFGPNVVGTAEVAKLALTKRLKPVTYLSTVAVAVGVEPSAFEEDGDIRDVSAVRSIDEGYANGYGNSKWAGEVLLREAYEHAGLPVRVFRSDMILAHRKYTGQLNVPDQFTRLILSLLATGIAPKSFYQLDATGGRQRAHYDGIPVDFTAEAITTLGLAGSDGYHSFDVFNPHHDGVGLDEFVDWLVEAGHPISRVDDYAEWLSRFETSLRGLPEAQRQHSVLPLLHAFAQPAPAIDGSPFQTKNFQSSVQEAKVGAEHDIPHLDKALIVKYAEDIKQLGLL
Description: one-pot cascade with AnInD, HPLC. The data set is classed as biochemical. The note with it: I3C formed in situ from indole + NaHCO3 by AnInD; ATP, NADPH, Mn2+, Mg2+; potassium phosphate, 30 °C.

For data set [3], the target named is T3, AnInD (indole-3-carboxylic acid decarboxylase) (Glutamicibacter nicotianae, UniProt Z9P359VB74, D169V).
T3 construct: His6-tagged (C-terminal in pET30a or N-terminal in pET28a), E. coli BL21(DE3), Ni-NTA, ~50 kDa by SDS-PAGE, hexamer, reconstituted with prFMN and Mn2+
T3 sequence (Z9P359VB74 2-461 D169V): T1 sequence (Z9P359VB74 2-461 D169L) with L168V
As to the kind of experiment: end point HPLC decarboxylation assay. The class given is biochemical. The settings on record: prFMN-reconstituted; 50 mM potassium phosphate pH 6.5, 10 mM I3C, 2 μM enzyme.

For data set [4], the target named is T4, AnInD (indole-3-carboxylic acid decarboxylase) (Glutamicibacter nicotianae, UniProt Z9P359VB74, D169A).
T4 construct: His6-tagged (C-terminal in pET30a or N-terminal in pET28a), E. coli BL21(DE3), Ni-NTA, ~50 kDa by SDS-PAGE, hexamer, reconstituted with prFMN and Mn2+
T4 sequence (Z9P359VB74 2-461 D169A): T1 sequence (Z9P359VB74 2-461 D169L) with L168A
Description: end point HPLC decarboxylation assay. The note with it: prFMN-reconstituted; 50 mM potassium phosphate pH 6.5, 10 mM I3C, 2 μM enzyme. The data set is classed as biochemical.

In data set [5] the test system is T5, O=C(O)c1c[nH]c2ccccc12.
T5 construct: His6-tagged (C-terminal in pET30a or N-terminal in pET28a), E. coli BL21(DE3), Ni-NTA, ~50 kDa by SDS-PAGE, hexamer, reconstituted with prFMN and Mn2+
Description: purified protein. The class given is biochemical, Glutamicibacter nicotianae. The note with it: prFMN-reconstituted enzyme, Mn2+, 50 mM potassium phosphate pH 6.5, 50 mM KCl, room temperature, apparent because active enzyme (prFMN) content is unknown.

For data set [6], the target named is indole-3-carboxylate decarboxylase from Arthrobacter nicotianae (Arthrobacter nicotianae). As to the kind of experiment: crystal structure; AnInD at ca 15 mg/ml, sitting drop vapor diffusion, PACT screen condition G5, 20 °C; crystals soaked with prFMN; space group P2_(1); whole hexamer in the asymmetric unit.
Data set [7] shares this target. Description: SAXS; HPLC SAXS (Shodex KW-403 column, 0.15 ml/min) on beamline B21, Diamond Light Source; ab initio envelope (DAMMIN/DAMAVER) with the hexamer crystal structure superimposed.

Numbering of substitutions follows the chain as printed.

Consider `O=C(O)c1c[nH]c2ccccc12` [I3C, indole-3-carboxylic acid], for which the activity entry in data set [1], in data set [3] and in data set [4] was “All AnInD D169X variants were found to be severely affected in activity” in each case. In addition, the “one-pot cascade with AnInD, HPLC” value in data set [2] is recorded as “These assays revealed the formation/production of indole-3-carboxyaldehyde”.
Broadly, the Km is the substrate concentration at which the rate is half of its maximum. As to “AnInD (indole-3-carboxylic acid decarboxylase) (Glutamicibacter nicotianae)”, in data set [5], the Km was determined as 790 µM and the kcat is reported as 4.4 (±0.3) s^−1.
The stoichiometry N is a count of units in the complex or per binding partner. In the case of “indole-3-carboxylate decarboxylase from Arthrobacter nicotianae (enzyme)”, the stoichiometry N in data set [6] and in data set [7] was 6 in each case.
